This is an account of results in article PMC9945865, “Anticancer evaluation of new organometallic ruthenium(II) flavone complexes” (RSC Medicinal Chemistry, 2022).

Series [1] has as its system cervical, breast, hepatocellular and colorectal cancer cell lines. Details: method as in PMID 24793593. The conditions noted are these: hepatocellular and colorectal cancer cell lines ref 19; cited from earlier work.
Series [2] has as its system ovarian cancer cell lines. Also on record: method as in doi:10.1021/OM500317B. To be noted: ovarian cancer cell lines ref 20; cited from earlier work.
A short description of series [3]: Cytotoxicity on HUVECs, trypan blue exclusion assay. It counts as cell-based, human. To be noted: human, HUVEC cells, % of control, p > 0.05 vs control, read-out: Cell viability of HUVECs. The procedure: The biocompatibility of flavones (1 and 2)[30] alongside their ruthenium(II) metal complexes (1Ru and 2Ru) with HUVEC cells was established using the trypan blue exclusion assay. A concentration four times higher (i.e. 40 μM) than the highest concentration used for the tube formation antiangiogenic evaluation study (i.e. 10 μM) was selected for this cytotoxic assay.
Cytotoxic activity of treatments on HUVECs using trypan blue exclusion assay.[55] HUVECs were seeded in 96 well plates at 1 × 10^5 cells per mL and cultured for 24 h. Cells were then treated with either luteolin, the synthesised derivatives at 40 μM or culture medium (control) for 24 h. After 24 h, solutions were removed and cells washed with 100 μL PBS followed by the addition of 50 μL trypsin–EDTA and incubation for 5 min to detach the cells. 50 μL of EGM-2 media was added to the wells. 50 μL aliquots of the cell suspension were mixed with equal volume of trypan blue (TB) 0.2% v/v (prepared from 0.4% TB diluted with PBS) then the cells were counted using a haemocytometer. Number of viable and dead cells were counted manually and % cell viability of each treatment was expressed as % of control using the equation:% Cell Viability = (Cell viability in treatment/Cell viability in control) × 100where cell viability was calculated as follows:Cell Viability = Number of viable cells/Total number of cells(viable and dead).

In series [4] the test system is MCF-7. The series can be described thus: Cell viability, 72 h MTT assay. In kind it is cell-based, human. The conditions noted are these: Homo sapiens, MCF7; MCF-7, 72 h MTT, mean ± SEM, n = 3. The procedure: (§1) The unique chemical features and coordination geometries of metal ions can add several additional binding interactions that can potentially enhance their anticancer properties for example by allowing intercalation and exploitation of their redox potential.[24] […] In that context, coordination of derivative (2) with a Ru(II) metal ligand is a promising approach to further improve its antiproliferative activity.
(§2) MCF-7 and MDA-MB-231 cells were seeded at a density of 4 × 10^4 and 2 × 10^4 cells per mL, respectively, into 96 well plates and incubated to allow the attachment for 24 h. After 24 h, the cells were treated with one of the synthesised derivatives at range of concentrations (0–100 μM) for 67 h. After 67 h, 20 μL of MTT (5 mg mL^−1) solution in PBS was added to each well and the cells were incubated for 5 h. The purple crystals formed were dissolved in 100 μL of DMSO and the plates were read at 560 nm using a SPECTRA max UV spectrometer (Bio-Rad). The data represented are the mean of the three individual experiments.
(In general: Tetrazolium dyes change colour on reduction, which living cells bring about.)

For series [5], the system named is MDA-MB-231. The series can be described thus: Cell viability, 72 h MTT assay. It counts as cell-based, human. The conditions noted are these: Homo sapiens; MDA-MB-231, 72 h MTT, mean ± SEM, n = 3. The method, then: as §1, §2
The test system of series [6] is MCF-7. The series can be described thus: Wound healing (migration) 24 h scratch assay. It counts as cell-based, human. To be noted: MCF-7, any of the tested doses (1, 10, 20 μM). The procedure:
(§3) Malignant cell migration is essential for tumour invasion and metastasis.[1] Thus, the ability of the synthetic flavones (1 and 2) and their Ru(II) metal complexes (1Ru and 2Ru) to inhibit the migration of breast cancer cells (MCF-7 and MDA-MB-231) was assessed by an in vitro 24 h scratch assay. Low, sub-cytotoxic concentrations of 1, 10 and 20 μM were used in this evaluation.
(§4) MCF-7 or MDA-MB-231 cells were seeded in 12-well plates at 2 × 10^5 or 1 × 10^5 cells per mL, respectively, and cultured until 70–80% confluency. Afterwards, they were serum-starved (0% serum) for 24 h to inactivate the cell proliferation. A scratch was performed on the cell monolayers using a 200 μL pipette tip. Cells were then washed twice with PBS and treated with complete medium and one of the synthesized derivatives at 1, 10 or 20 μM. […] Images of the scratches were taken immediately after performing the scratch (t = 0 h) and at 24 h (t = 24 h). The area not covered by the cells was quantified using ImageJ software. % of wound closure was calculated using the following equation:100 × ((Area of scratch at t0 − Area of scratch at t24)/Area of scratch at t0)

Series [7] relates to MDA-MB-231. The series can be described thus: Wound healing (migration) 24 h scratch assay. It counts as cell-based, human. To be noted: MDA-MB-231, 1, 10, 20 μM, 24 h. The method, then: as §3, §4
Series [8] concerns VEGF i-motif DNA. The experiment in a line: I-motif DNA binding, UV-visible absorbance. To be noted: DNA : flavonoid 2 μM : 2 μM, pH 5.5, 25 °C. Details: species or system human. The source says:
(§5) I-motifs are four stranded antiparallel cytosine rich DNA sequences capable of forming at telomere and promotor regions of genomic DNA.[41,42] […] Due to the presence of potential i-motif forming sequences in 69% of promoter regions in human oncogenes, they are postulated to play a key role in oncogene expression regulation.[44] VEGF and c-myc i-motif sequences are prevalent in oncogene promotor regions in many cancers including breast cancer and as such their ligands have potential anticancer roles.[45] The natural flavonol, fisetin, is reported to specifically bind to VEGF i-motif DNA and regulate its function by stabilizing its hairpin structure.[31] […] In continuation of our investigation of the effects of Ru metal complexation on the different biological activities of flavonoids, interactions with VEGF and c-myc i-motif DNA were studied using UV-vis spectroscopic techniques. […] However, 2Ru's addition led to a 1 nm hypsochromic shift of VEGF i-motif absorbance maximum from 272 to 271 nm. On the other hand, addition of the 4-oxo flavone (1) and its Ru complex (1Ru) led to minor changes in λmax of both sequences that was hypochromic (5% and 3%) with VEGF and hyperchromic (2% and 5%) in case of c-myc (Fig. 8).
(§6) UV-visible absorbance measurements and DNA UV melting studies were performed on a Cary 300 C (Varian USA) UV-visible spectrophotometer. VEGF and c-myc i-motif DNA (5′-3′ sequences ([…]) and ([…]), respectively) were purchased from Sigma-Aldrich (Gillingham, UK) and used without further purification. Na cacodylate buffer (20 mM, pH 5.5) was used for both i-motifs. DNA concentrations were determined by measuring the absorbance at 260 nm after melting using the molar extinction coefficient supplied by the manufacturer. VEGF and c-myc i-motifs were prepared for experiments by diluting with buffer solution, annealed with or without the flavonoid at 95 °C for 5 min then gently cooled to room temperature. The stock solutions of the test compounds (20 mM) were prepared in 100% sterile DMSO. These stocks were then appropriately diluted with HPLC grade water and DMSO levels were maintained below 0.1% in the test concentrations.
(§7) UV-visible absorbance measurements and UV melting studies of either free i-motifs (VEGF or c-myc), free flavone (1, 1Ru, 2 or 2Ru) or both i-motif DNA and flavone (2 μM: 2 μM) were recorded using 1.0 cm matched quartz cuvettes. First spectra were recorded in the range of 200–500 nm to determine the relevant wavelength range were no peaks were observed above 320 nm. […] UV-visible absorbance was measured at 25 °C while melting curves were collected at a heating rate of 1 °C min^−1 from 20 to 90 °C. Tm was calculated by non-linear fitting of the sigmoidal curve obtained at 295 nm.

The subject of series [9] is c-myc i-motif DNA. The experiment in a line: I-motif DNA binding, UV-visible absorbance. Also on record: species or system human. To be noted: DNA : flavonoid 2 μM : 2 μM, pH 5.5, 25 °C.
Source text: as §5, §6, §7

Series [10] relates to VEGF i-motif DNA. The experiment in a line: I-motif DNA UV melting (thermal stability). In kind it is binding, human. To be noted: for Tm: VEGF i-motif with flavone at 1 : 1 ratio, 295 nm, free DNA 46 °C; for ΔTm: VEGF i-motif, 1 : 1 ratio, ΔTm = Tm (DNA-flavone) − Tm (DNA).
Source text: (§8) The effect of this set of flavones on VEGF and c-myc was further evaluated via thermal stability measurements. Stabilizing/destabilizing the promotor i-motif structures is often reported to regulate expression of the corresponding genes, which for VEGF and c-myc could have detrimental effects on cancer growth and propagation.[48] As observed in Fig. 9, effects of the test flavones on the thermal stability of the VEGF and c-myc i-motif sequences were generally marginal and in agreement with λmax chromophoric shifts. […] Compound 1 destabilized VEGF i-motif in contrast to stabilizing the c-myc one. This mirrored the trend of a higher chromophoric shift observed for flavone 1 with VEGF i-motif sequence that also differed in pattern (hypochromic) from the shift witnessed with the c-myc sequence (hyperchromic). These findings could indicate higher selectivity of the 4-oxo derivative (1) towards VEGF i-motif based on an intercalative binding mode especially that hypochromic shifts are reported with DNA intercalation.[49,50] […] In this regard, the highest i-motif activity seen for the parent flavonoids was switched from VEGF to c-myc with compound 1 and vice versa with compound 2 upon Ru chelation. This emphasizes the key role of the interplay between the substitution at position 4 and metal complexation on the interaction with biological targets.
as §6, §7

Series [11] concerns c-myc i-motif DNA. The experiment in a line: I-motif DNA UV melting (thermal stability). In kind it is binding, human. The conditions noted are these: for Tm: c-myc i-motif with flavone at 1 : 1 ratio, 295 nm, free DNA 45 °C; for ΔTm: c-myc i-motif, 1 : 1 ratio, ΔTm = Tm (DNA-flavone) − Tm (DNA).
Source text: as §8, §6, §7

The next series deals with HUVECs. The series can be described thus: Matrigel endothelial cell tube formation assay (VEGF-mediated). It counts as cell-based, human. To be noted: compared to the positive control (10 ng mL^−1 VEGF), 12 h. The method, then: In our recent study,[30] the 4′-chlorophenylflavone derivatives 1 and 2 have shown promising antiangiogenic activities in vitro. Herein, the effect of complexation with a ruthenium(II) metal ligand on the antiangiogenic activity of 1 and 2 was evaluated using the Matrigel tube formation assay that assesses many of the main steps involved in the process of angiogenesis. Inhibition of VEGF-mediated tube formation by the tested substrates was observed after 12 h of treatment on HUVECs at 1 μM and 10 μM concentrations. Luteolin is a natural flavone well known for its high antiangiogenic activity both in vitro and in vivo[34] and as such was used in this study as a reference standard. In accordance with reported data, luteolin inhibited the measured elements of tube formation by 30% compared to the positive control.[34,35] […] The ability of Ru(II) organometallic derivatives to target tumour metastasis has been widely reported both in vitro and in vivo.[3,6,9,36] Thus, based on the preliminary antiangiogenic trends observed for our target Ru(II) complexes (1Ru and 2Ru) and their parent flavones (1 and 2), we further investigated their antiproliferative and antimetastatic potential on the estrogen receptor positive breast cancer cell line (MCF-7) and the more aggressive triple negative cell line (MDA-MB-231).
HUVECs were cultured until confluency and then serum starved (0.1% serum) for 24 h. The tube formation assay followed the reported assay.[56] Briefly, 96 well plates were coated with 50 μL of Corning™ Matrigel™ GFR Membrane Matrix at 4 °C and incubated at 37 °C for 1–2 h to solidify. Serum starved HUVECs were seeded on the solidified Matrigel at 3 × 10^5 cells per mL and treated with medium containing VEGF (10 ng mL^−1) and either luteolin or one of the synthesised derivatives (at 1 μM or 10 μM). Plates were incubated for 12 h and photos covering the whole well area were taken using 4× magnification power of an inverted light microscope. Number of junctions, number and length of segments and master segments were quantified from the taken Images via the Angiogenesis Analyzer plugin[57] in ImageJ software.[58] […] Data was represented as a ratio to the positive control (VEGF enriched).

For orientation: IC50 means the midpoint of a concentration-inhibition curve. As to `N.N.[Cl][Pt][Cl]` [cisplatin], the results for the IC50 in series [1] and in series [2] were 13 to 52 µM and 1.5 to 25 µM, respectively.
What is called viability is the share of living cells, or the viability signal relative to a control. The ΔTm is the change in melting temperature against a reference sample. On to `O=c1cc(-c2ccc(Cl)cc2)oc2cc(O)cc(O)c12` [compound 1, 2-(4-chlorophenyl)-5,7-dihydroxy-4H-chromen-4-one], for which the viability at 24 h, 40 µM in series [3] was roughly 100%. The concentration for half-maximal inhibition (IC50) in the series with MCF-7 [4] and with MDA-MB-231 [5] was greater than 100 µM throughout. For the same compound, the antimigratory activity result in the series with MCF-7 [6] is listed as “no observed effects”. In addition, the “effect on the migration” value with MDA-MB-231 [7] is recorded as “neither showed any effect”. Besides, in the series on VEGF i-motif DNA [8], the “hypochromic change at λmax” value is listed as 5%. For the same compound, in the series with c-myc i-motif DNA [9], the “hyperchromic shift (increase) at absorbance maximum λmax” value (“hyperchromic shift (increase)” for short) worked out at 2%. Further, the Tm with VEGF i-motif DNA [10] was 44 °C; in the series with c-myc i-motif DNA [11], 46 °C. The ΔTm in the series with VEGF i-motif DNA [10] is −2 °C; in the series on c-myc i-motif DNA [11] it was 1 °C.
By melting point is commonly meant the temperature of the solid-liquid transition. Compound `Oc1cc(O)c2c(=S)cc(-c3ccc(Cl)cc3)oc2c1` [compound 2, 2-(4-chlorophenyl)-5,7-dihydroxy-4H-chromene-4-thione] showed a melting point of 247.7 to 248 °C. Also, the viability at 24 h, 40 µM in [3] is roughly 100%. The compound also showed an IC50 with MCF-7 [4] of 1.2 ± 0.8 µM. This compound also came in with an IC50 in the series on MDA-MB-231 [5] of 43.1 ± 1.29 µM. Besides, the “hyperchromic shift (increase)” value with VEGF i-motif DNA [8] was 16%. In addition, in the series on c-myc i-motif DNA [9], the “hyperchromic shift (increase)” value was determined as 18%. In the series with VEGF i-motif DNA [10], the Tm was determined as 47 °C and the shift in melting temperature (ΔTm) was determined as 1 °C. In addition, in the series with c-myc i-motif DNA [11], the Tm came out at 47 °C and the ΔTm amounted to 2 °C.
For the compound `O=c1cc(-c2ccc(O)c(O)c2)oc2cc(O)cc(O)c12` [luteolin, Luteolin, reference compound], the “inhibition of the measured elements of tube formation” value with HUVECs was determined as 30%.
